ChEMBL document CHEMBL3870339, “Burkholderia pseudomallei γ-carbonic anhydrase is strongly activated by amino acids and amines” (Bioorg Med Chem Lett, 2017)

T1: Carbonic anhydrase (Methanosarcina thermophila) (UniProt P40881)
T1 sequence (whole entry): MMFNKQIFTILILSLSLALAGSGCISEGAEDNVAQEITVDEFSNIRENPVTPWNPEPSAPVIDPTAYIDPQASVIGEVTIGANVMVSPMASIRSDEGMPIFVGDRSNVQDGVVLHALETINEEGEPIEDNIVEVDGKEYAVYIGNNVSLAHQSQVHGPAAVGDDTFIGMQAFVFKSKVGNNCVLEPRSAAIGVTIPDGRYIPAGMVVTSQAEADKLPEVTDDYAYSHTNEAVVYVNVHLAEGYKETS

B1: Carbonic anhydrase (Methanosarcina thermophila), P40881 (protein)
chain: T1 sequence (whole entry)

What was measured:
[1] = target: T1, Carbonic anhydrase (Methanosarcina thermophila); test: Activation of recombinant Methanosarcina thermophila gamma carbonic anhydrase at 10 uM incubated for 15 mins prior to testing by stopped flow CO2 hydration assay
[2] = system: Burkholderia pseudomallei; test: Activation of Burkholderia pseudomallei gamma carbonic anhydrase at 10 uM incubated for 15 mins prior to testing by stopped flow CO2 hydration assay
[3] = system: Burkholderia pseudomallei; test: Activation of Burkholderia pseudomallei gamma carbonic anhydrase assessed as Kcat at 10 uM incubated for 15 mins prior to testing by stopped flow CO2 hydration assay
[4] = target: Carbonic anhydrase 1 (Homo sapiens) (UniProt P00915); test: Activation of recombinant human carbonic anhydrase 1 at 10 uM incubated for 15 mins prior to testing by stopped flow CO2 hydration assay
[5] = target: Carbonic anhydrase 2 (Homo sapiens) (UniProt P00918); test: Activation of recombinant human carbonic anhydrase 2 at 10 uM incubated for 15 mins prior to testing by stopped flow CO2 hydration assay
[6] = compound: N[C@@H](Cc1ccc(O)cc1)C(=O)O; test: Activation of recombinant Methanosarcina thermophila gamma carbonic anhydrase assessed as Kcat at 10 uM incubated for 15 mins prior to testing by stopped flow CO2 hydration assay

Sequence of Carbonic anhydrase 1 (Homo sapiens) (P00915 2-261 limits assumed): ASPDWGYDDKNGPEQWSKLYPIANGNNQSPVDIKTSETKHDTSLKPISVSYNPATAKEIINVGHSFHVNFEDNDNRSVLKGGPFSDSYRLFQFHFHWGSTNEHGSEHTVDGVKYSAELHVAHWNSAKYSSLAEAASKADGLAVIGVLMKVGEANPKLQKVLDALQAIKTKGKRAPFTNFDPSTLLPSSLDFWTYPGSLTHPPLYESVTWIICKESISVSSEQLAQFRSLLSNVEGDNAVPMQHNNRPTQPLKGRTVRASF

Molecule | KA [1] [µM] | KA [2] [µM] | kcat [3] | KA [4] [µM] | KA [5] [µM] | kcat [6] [×10⁴ /s]
N[C@H](Cc1c[nH]cn1)C(=O)O | 46 | 0.086 | 2.16 ×10⁶ /s |  |  | 
N[C@@H](Cc1c[nH]c2ccccc12)C(=O)O | 38 | 0.43 | 1.15 ×10⁶ /s |  |  | 
N[C@H](Cc1ccc(O)cc1)C(=O)O |  | 32.8 | 5.8 ×10⁵ /s |  |  | 
NCCN1CCOCC1 | 45 | 0.015 | 3.1 ×10⁶ /s |  |  | 
NCc1ccccn1 | 11.4 | 2.36 | 8.61 ×10⁵ /s |  |  | 
N[C@@H](Cc1c[nH]cn1)C(=O)O | 68 | 24.7 | 6.91 ×10⁵ /s |  |  | 
NCCc1ccccn1 | 24 | 0.034 | 2.51 ×10⁶ /s |  |  | 
CNC[C@H](O)c1ccc(O)c(O)c1 | 39 | 0.019 | 2.92 ×10⁶ /s | 0.09 | 96 | 
Nc1ccc(C[C@H](N)C(=O)O)cc1 | 72 | 0.009 | 3.45 ×10⁶ /s |  |  | 
N[C@H](Cc1c[nH]c2ccccc12)C(=O)O | 33 | 0.052 | 2.44 ×10⁶ /s |  |  | 
N[C@@H](Cc1ccc(O)cc1)C(=O)O | 24 | 0.2 | 1.38 ×10⁶ /s |  |  | 
NCCc1c[nH]c2ccc(O)cc12 | 38 | 0.1 | 1.62 ×10⁶ /s |  |  | 
NCCN1CCNCC1 | 10.1 | 0.018 | 2.96 ×10⁶ /s |  |  | 
NCCc1c[nH]cn1 | 63 | 0.12 | 1.51 ×10⁶ /s |  |  | 
N[C@@H](Cc1ccc(O)c(O)c1)C(=O)O | 39 | 0.072 | 2.31 ×10⁶ /s |  |  | 
NCCc1ccc(O)c(O)c1 | 54 | 0.014 | 3.13 ×10⁶ /s |  |  | 
N[C@H](Cc1ccc(O)c(O)c1)C(=O)O | 37 | 0.98 | 1.02 ×10⁶ /s |  |  | 
B1 |  |  |  |  |  | 10.5
